What all share (experiment): G' assay (10 uM PL peptide), results of TABLE 7 and TABLE 12
Holding throughout (assay type): binding

The target in test [1] is T1, PDZ protein (GST-PDZ fusion) (Homo sapiens, UniProt O15018).
T1 construct: made in house; host or cells: E. coli (DH5alpha, BL21 or JM109)
The following applies: PDZ AIPC, PDZ Domain 1. The gist of the method: (§1)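 Binding classes derive from A450 nm of bound biotin-tagged PL peptide. A score of 5 needs A450 above 4 in more than two repeats.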

Test [2] has as its target T2, PDZ protein (GST-PDZ fusion) (Homo sapiens, UniProt P78352).
T2 construct: made in house; host or cells: E. coli (DH5alpha, BL21 or JM109)
The gist of the method:
as §1

The target in test [3] is T3, PDZ protein (GST-PDZ fusion) (Homo sapiens, UniProt Q12959).
T3 construct: made in house; host or cells: E. coli (DH5alpha, BL21 or JM109)
The essentials:
as §1

Test [4] deals with T4, PDZ protein (GST-PDZ fusion) (Homo sapiens, UniProt Q13796).
T4 construct: made in house; host or cells: E. coli (DH5alpha, BL21 or JM109)
The following applies: PDZ hAPXL, PDZ Domain 1. The gist of the method: as §1

Test [5] deals with T5, PDZ protein (GST-PDZ fusion) (Homo sapiens, UniProt Q14160).
T5 construct: made in house; host or cells: E. coli (DH5alpha, BL21 or JM109)
The gist of the method:
as §1

Test [6] has as its target T6, PDZ protein (GST-PDZ fusion) (Homo sapiens, UniProt Q15700).
T6 construct: made in house; host or cells: E. coli (DH5alpha, BL21 or JM109)
The essentials:
as §1

The target in test [7] is T7, PDZ protein (GST-PDZ fusion) (Homo sapiens, UniProt Q86UL8).
T7 construct: made in house; host or cells: E. coli (DH5alpha, BL21 or JM109)
The gist of the method: as §1

The target of test [8] is T8, PDZ protein (GST-PDZ fusion) (Homo sapiens, UniProt Q92796).
T8 construct: made in house; host or cells: E. coli (DH5alpha, BL21 or JM109)
T8 sequence (Q92796 1-817): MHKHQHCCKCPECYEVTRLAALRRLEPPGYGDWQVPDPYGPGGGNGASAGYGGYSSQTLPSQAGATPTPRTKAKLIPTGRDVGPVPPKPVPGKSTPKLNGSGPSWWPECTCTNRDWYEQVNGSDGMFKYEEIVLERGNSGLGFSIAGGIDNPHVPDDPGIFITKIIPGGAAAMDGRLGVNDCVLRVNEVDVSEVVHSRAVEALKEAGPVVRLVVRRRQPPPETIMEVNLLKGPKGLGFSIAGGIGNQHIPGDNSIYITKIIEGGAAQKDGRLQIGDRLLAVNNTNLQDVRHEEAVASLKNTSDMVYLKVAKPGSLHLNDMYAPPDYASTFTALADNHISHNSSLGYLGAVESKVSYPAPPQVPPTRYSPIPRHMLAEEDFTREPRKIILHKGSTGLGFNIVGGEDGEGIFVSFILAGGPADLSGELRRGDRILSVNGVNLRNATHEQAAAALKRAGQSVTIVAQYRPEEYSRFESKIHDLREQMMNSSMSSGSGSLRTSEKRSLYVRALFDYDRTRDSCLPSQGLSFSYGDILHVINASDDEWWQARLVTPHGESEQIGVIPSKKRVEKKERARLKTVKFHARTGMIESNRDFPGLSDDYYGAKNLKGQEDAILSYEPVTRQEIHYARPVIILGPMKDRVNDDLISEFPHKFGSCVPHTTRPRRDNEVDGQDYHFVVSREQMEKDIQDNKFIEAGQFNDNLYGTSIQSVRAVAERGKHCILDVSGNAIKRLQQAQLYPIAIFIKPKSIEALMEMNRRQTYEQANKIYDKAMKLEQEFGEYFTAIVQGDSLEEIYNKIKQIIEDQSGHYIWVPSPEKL
The following applies: PDZ NeDLG. The gist of the method:
as §1

The target of test [9] is T9, PDZ protein (GST-PDZ fusion) (Homo sapiens, UniProt Q8NI35).
T9 construct: made in house; host or cells: E. coli (DH5alpha, BL21 or JM109)
Conditions: PDZ INADL. The essentials:
as §1

[10] abbreviates: PDZ Atrophin-1 Inter. Prot., PDZ Domain 5.
Where [11] appears, read: PDZ atrophin-1 interacting Protein (Atrophin-1 Inter. Prot.), PDZ Domain 1.
Where [12] appears, read: PDZ atrophin-1 interacting Protein, PDZ Domain 3.

Peptide text beside a SMILES is read from it. * marks the point of attachment. Biotin = O=C1N[C@H]2[C@H](CS[C@H]2CCCCC(=O)*)N1

T7 sequence (Q86UL8 whole entry, the tested form may be a part): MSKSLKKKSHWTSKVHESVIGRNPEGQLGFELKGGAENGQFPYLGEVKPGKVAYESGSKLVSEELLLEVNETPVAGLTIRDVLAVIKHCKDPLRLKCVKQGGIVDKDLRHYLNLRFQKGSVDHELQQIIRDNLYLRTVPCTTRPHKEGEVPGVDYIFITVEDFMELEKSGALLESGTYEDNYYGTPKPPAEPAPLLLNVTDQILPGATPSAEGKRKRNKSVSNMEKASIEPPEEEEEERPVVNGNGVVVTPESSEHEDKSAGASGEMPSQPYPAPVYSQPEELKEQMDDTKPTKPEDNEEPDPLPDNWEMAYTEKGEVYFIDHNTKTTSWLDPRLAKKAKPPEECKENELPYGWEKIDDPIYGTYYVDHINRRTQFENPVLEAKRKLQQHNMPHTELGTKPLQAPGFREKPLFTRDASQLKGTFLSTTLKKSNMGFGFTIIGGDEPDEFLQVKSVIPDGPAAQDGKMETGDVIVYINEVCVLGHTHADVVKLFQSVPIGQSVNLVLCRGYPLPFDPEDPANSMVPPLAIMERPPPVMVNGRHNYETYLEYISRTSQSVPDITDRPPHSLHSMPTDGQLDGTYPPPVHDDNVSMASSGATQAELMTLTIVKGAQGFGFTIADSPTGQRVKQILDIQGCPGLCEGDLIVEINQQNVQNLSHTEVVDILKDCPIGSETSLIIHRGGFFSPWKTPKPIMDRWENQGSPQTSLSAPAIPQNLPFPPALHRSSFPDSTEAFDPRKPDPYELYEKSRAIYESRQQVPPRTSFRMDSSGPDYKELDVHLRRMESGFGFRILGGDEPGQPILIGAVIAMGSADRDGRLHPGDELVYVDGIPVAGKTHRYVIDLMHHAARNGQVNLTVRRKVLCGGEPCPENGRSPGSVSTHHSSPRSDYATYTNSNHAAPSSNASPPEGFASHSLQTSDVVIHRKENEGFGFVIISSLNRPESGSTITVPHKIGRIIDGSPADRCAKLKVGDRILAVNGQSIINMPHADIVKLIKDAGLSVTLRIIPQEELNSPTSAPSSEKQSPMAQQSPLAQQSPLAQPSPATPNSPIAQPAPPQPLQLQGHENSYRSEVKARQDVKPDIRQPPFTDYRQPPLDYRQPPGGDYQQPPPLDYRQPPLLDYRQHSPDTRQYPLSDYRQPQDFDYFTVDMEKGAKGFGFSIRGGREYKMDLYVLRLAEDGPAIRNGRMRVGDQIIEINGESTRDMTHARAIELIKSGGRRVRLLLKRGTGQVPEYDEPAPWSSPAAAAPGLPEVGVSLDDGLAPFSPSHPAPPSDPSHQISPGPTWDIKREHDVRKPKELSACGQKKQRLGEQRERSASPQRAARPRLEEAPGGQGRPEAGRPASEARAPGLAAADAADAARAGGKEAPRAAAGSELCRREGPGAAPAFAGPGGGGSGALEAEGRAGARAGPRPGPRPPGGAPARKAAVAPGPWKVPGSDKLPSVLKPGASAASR
T9 sequence (Q8NI35 whole entry, the tested form may be a part): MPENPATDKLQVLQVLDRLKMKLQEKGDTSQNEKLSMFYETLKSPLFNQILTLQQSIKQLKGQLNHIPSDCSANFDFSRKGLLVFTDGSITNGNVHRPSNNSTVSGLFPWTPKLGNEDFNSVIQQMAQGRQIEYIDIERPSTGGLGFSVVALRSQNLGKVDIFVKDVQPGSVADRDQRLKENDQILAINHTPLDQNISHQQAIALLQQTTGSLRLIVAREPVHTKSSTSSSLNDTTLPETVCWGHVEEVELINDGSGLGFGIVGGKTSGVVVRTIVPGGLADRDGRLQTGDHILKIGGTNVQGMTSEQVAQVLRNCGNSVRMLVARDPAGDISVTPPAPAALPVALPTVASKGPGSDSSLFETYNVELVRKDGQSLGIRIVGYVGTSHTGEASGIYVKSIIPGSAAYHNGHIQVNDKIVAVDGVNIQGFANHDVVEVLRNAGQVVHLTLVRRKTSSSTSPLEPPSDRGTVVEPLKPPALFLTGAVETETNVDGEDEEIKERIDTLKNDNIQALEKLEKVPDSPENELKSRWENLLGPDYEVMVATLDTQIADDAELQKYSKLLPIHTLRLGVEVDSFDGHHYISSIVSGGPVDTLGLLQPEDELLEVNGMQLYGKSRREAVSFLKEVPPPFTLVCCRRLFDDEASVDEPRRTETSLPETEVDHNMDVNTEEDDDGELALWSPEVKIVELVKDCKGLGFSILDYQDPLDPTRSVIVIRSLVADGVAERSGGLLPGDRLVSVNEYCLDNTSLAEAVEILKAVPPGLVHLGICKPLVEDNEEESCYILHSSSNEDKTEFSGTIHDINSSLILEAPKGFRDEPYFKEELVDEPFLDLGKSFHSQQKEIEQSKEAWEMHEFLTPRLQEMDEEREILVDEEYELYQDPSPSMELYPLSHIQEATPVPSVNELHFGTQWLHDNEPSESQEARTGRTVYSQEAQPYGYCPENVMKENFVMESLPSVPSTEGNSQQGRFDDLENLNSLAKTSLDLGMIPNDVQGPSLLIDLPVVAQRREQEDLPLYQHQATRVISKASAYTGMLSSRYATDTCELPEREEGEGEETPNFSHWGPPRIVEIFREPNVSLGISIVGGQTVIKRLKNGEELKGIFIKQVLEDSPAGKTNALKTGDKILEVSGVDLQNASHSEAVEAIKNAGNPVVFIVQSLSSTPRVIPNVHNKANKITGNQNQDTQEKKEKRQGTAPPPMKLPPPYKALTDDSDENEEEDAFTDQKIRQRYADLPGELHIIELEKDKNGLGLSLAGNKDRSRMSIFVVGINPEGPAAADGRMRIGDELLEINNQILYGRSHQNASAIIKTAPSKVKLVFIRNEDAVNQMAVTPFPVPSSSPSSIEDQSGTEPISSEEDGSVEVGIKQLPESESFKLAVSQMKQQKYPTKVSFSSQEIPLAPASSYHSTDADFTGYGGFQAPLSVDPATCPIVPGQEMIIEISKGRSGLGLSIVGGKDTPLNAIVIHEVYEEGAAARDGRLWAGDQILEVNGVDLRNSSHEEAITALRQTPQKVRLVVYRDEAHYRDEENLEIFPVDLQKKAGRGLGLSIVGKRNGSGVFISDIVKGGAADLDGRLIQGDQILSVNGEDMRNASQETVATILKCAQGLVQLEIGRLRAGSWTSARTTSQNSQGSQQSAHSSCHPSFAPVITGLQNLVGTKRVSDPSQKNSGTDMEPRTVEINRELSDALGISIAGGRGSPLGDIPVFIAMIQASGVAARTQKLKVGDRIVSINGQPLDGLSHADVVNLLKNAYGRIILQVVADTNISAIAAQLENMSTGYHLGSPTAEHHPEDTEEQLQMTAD
T4 sequence (Q13796 whole entry, the tested form may be a part): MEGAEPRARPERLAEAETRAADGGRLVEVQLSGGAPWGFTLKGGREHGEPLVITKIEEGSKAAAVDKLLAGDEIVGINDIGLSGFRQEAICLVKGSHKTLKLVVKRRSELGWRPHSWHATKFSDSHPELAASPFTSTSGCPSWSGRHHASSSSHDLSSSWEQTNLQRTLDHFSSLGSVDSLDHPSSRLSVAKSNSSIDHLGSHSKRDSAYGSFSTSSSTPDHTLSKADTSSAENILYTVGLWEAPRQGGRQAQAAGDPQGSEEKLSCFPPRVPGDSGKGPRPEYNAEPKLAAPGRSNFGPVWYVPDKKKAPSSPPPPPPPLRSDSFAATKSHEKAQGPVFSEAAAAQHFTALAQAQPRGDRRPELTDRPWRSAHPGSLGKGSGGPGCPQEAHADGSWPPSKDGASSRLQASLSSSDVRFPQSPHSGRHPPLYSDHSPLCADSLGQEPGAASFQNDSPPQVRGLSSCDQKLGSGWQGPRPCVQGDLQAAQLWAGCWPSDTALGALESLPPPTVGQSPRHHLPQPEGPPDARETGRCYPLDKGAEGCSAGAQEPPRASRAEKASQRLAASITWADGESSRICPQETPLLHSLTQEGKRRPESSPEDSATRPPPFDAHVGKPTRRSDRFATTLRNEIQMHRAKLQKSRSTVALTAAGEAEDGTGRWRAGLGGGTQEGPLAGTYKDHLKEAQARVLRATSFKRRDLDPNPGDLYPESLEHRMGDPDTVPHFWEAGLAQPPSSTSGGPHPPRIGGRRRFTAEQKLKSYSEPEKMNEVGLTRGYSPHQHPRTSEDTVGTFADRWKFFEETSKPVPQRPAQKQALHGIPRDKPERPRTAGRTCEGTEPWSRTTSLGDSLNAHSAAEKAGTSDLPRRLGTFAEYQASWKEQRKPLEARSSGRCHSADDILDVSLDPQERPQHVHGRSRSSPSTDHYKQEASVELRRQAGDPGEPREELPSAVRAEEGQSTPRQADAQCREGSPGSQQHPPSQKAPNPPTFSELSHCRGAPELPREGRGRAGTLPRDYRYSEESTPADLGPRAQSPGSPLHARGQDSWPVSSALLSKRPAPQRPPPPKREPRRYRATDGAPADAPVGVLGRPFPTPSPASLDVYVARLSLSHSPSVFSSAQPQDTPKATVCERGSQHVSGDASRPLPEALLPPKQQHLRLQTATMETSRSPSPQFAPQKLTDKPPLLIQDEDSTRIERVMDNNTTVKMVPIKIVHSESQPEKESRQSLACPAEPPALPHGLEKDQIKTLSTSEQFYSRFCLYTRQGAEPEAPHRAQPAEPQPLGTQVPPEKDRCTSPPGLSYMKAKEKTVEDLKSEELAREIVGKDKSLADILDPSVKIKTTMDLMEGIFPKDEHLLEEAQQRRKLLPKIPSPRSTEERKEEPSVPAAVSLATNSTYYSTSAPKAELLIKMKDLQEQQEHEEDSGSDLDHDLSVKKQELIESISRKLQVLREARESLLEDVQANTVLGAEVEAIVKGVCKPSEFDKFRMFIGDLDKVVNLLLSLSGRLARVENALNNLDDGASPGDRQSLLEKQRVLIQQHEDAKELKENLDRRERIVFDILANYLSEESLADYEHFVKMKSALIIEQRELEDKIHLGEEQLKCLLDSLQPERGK

As to `CC(C)C[C@H](NC(=O)[C@H](C)NC(=O)[C@@H](NC(=O)[C@H](CCC(=O)O)NC(=O)[C@H](CCCNC(=N)N)NC(=O)[C@H](CCCNC(=N)N)NC(=O)CNC(=O)[C@H](CCC(N)=O)NC(=O)[C@H](CC(C)C)NC(=O)[C@H](CCCNC(=N)N)NC(=O)CNC(=O)CNC(=O)[C@H](CCCNC(=N)N)NC(=O)[C@H](C)NC(=O)[C@H](CO)NC(=O)[C@H](CCCNC(=N)N)NC(=O)CNC(=O)CNC(=O)[C@H](C)NC(=O)[C@H](C)NC(=O)CCCC[C@@H]1SC[C@@H]2NC(=O)N[C@@H]21)[C@@H](C)O)C(=O)O` [HPV E6 33 (modified)] (Biotin-AAGGRSARGGRLQGRRETAL-OH; C-terminus assumed), the Classification was 1 (A450 nm 0-1) in [1]; 2 (A450 nm 1-2) in test [2] (PDZ PSD95, PDZ Domain 1); 5 (A450 nm of 4 more than 2× repeated) in [2] (PDZ PSD95, PDZ Domain 1, 2, 3); 5 (A450 nm of 4 more than 2× repeated) in test [2] (PDZ PSD95, PDZ Domain 3); 3 (A450 nm 2-3) in test [3] (PDZ DLG1, PDZ Domain 1); 5 (A450 nm of 4 more than 2× repeated) in [3] (PDZ DLG1, PDZ Domain 2). Moreover, the Classification in test [4] is 3 (A450 nm 2-3); in test [5] (PDZ KIAA0147, PDZ Domain 1) it was 5 (A450 nm of 4 more than 2× repeated); in test [5] (PDZ KIAA0147, PDZ Domain 3), 2 (A450 nm 1-2); in test [6] (PDZ DLG2, PDZ Domain 1), 1 (A450 nm 0-1); in test [6] (PDZ DLG2, PDZ Domain 2), 3 (A450 nm 2-3); in [7] (setting [10]), 1 (A450 nm 0-1). For the same compound, the Classification was 4 (A450 nm 3-4) in test [7] (setting [11]); 1 (A450 nm 0-1) in test [8] (PDZ Domain 1); 5 (A450 nm of 4 more than 2× repeated) in test [8] (PDZ Domain 1, 2); 2 (A450 nm 1-2) in test [8] (PDZ Domain 2); 1 (A450 nm 0-1) in test [8] (PDZ Domain 3).

Take `CC(C)C[C@H](NC(=O)[C@H](C)NC(=O)[C@H](CO)NC(=O)CNC(=O)[C@@H](NC(=O)CCCC[C@@H]1SC[C@@H]2NC(=O)N[C@@H]21)[C@@H](C)O)C(=O)N[C@@H](CCC(N)=O)C(=O)N[C@@H](C)C(=O)N[C@@H](Cc1c[nH]c2ccccc12)C(=O)N[C@@H](CCCNC(=N)N)C(=O)N[C@@H](Cc1c[nH]cn1)C(=O)N[C@H](C(=O)N[C@@H](CO)C(=O)N[C@@H](CCCNC(=N)N)C(=O)N[C@@H](CCC(N)=O)C(=O)N[C@@H](C)C(=O)N[C@H](C(=O)N[C@@H](CCC(=O)O)C(=O)N[C@@H](CO)C(=O)N[C@H](C(=O)N[C@H](C(=O)O)C(C)C)[C@@H](C)O)[C@@H](C)O)[C@@H](C)O` [HPV E6 #66 (modified)] (Biotin-TGSALQAWRHTSRQATESTV-OH; C-terminus assumed): the Classification in [1] is listed as 1 (A450 nm 0-1); in test [2] (PDZ PSD95, PDZ Domain 1), 4 (A450 nm 3-4); in test [2] (PDZ PSD95, PDZ Domain 1, 2, 3), 5 (A450 nm of 4 more than 2× repeated); in [2] (PDZ PSD95, PDZ Domain 3) it was 1 (A450 nm 0-1); in [3] (PDZ DLG1, PDZ Domain 1), 4 (A450 nm 3-4); in [3] (PDZ DLG1, PDZ Domain 1, 2) it was 5 (A450 nm of 4 more than 2× repeated). In addition, the Classification in test [3] (PDZ DLG1, PDZ Domain 2) is listed as 5 (A450 nm of 4 more than 2× repeated); in test [4], 1 (A450 nm 0-1); in test [5] (PDZ KIAA0147, PDZ Domain 1), 2 (A450 nm 1-2); in test [6] (PDZ DLG2, PDZ Domain 1) it was 1 (A450 nm 0-1); in test [6] (PDZ DLG2, PDZ Domain 2), 5 (A450 nm of 4 more than 2× repeated); in [7] (setting [10]), 1 (A450 nm 0-1). Moreover, the Classification is given as 5 (A450 nm of 4 more than 2× repeated) in test [7] (setting [11]); 1 (A450 nm 0-1) in test [9] (PDZ Domain 8); 1 (A450 nm 0-1) in test [8] (PDZ Domain 1); 5 (A450 nm of 4 more than 2× repeated) in [8] (PDZ Domain 1, 2); 4 (A450 nm 3-4) in test [8] (PDZ Domain 2).

Consider TQGFPGPATWRRISSLESEV, for which the Classification in [1] is reported as 3 (A450 nm 2-3); in [2] (PDZ PSD95, PDZ Domain 1) it was 5 (A450 nm of 4 more than 2× repeated); in [2] (PDZ PSD95, PDZ Domain 1, 2, 3) it was 5 (A450 nm of 4 more than 2× repeated); in [2] (PDZ PSD95, PDZ Domain 3) it was 2 (A450 nm 1-2); in [3] (PDZ DLG1, PDZ Domain 1) it was 5 (A450 nm of 4 more than 2× repeated); in test [3] (PDZ DLG1, PDZ Domain 1, 2) it was 5 (A450 nm of 4 more than 2× repeated). Further, the Classification is given as 5 (A450 nm of 4 more than 2× repeated) in [3] (PDZ DLG1, PDZ Domain 2); 1 (A450 nm 0-1) in test [4]; 5 (A450 nm of 4 more than 2× repeated) in test [5] (PDZ KIAA0147, PDZ Domain 1); 1 (A450 nm 0-1) in test [5] (PDZ KIAA0147, PDZ Domain 2); 1 (A450 nm 0-1) in test [5] (PDZ KIAA0147, PDZ Domain 3); 4 (A450 nm 3-4) in [6] (PDZ DLG2, PDZ Domain 1). The Classification in test [6] (PDZ DLG2, PDZ Domain 2) is given as 5 (A450 nm of 4 more than 2× repeated); in test [7] (setting [10]), 5 (A450 nm of 4 more than 2× repeated); in [7] (PDZ atrophin-1 interacting Protein, PDZ Domain 1), 5 (A450 nm of 4 more than 2× repeated); in [7] (setting [12]) it was 2 (A450 nm 1-2); in test [9] (PDZ Domain 3), 2 (A450 nm 1-2); in test [9] (PDZ Domain 5), 1 (A450 nm 0-1). Further, the Classification was 1 (A450 nm 0-1) in test [9] (PDZ Domain 8); 2 (A450 nm 1-2) in test [8] (PDZ Domain 1); 5 (A450 nm of 4 more than 2× repeated) in test [8] (PDZ Domain 1, 2); 5 (A450 nm of 4 more than 2× repeated) in test [8] (PDZ Domain 2); 1 (A450 nm 0-1) in test [8] (PDZ Domain 3).

`CC[C@H](C)[C@H](NC(=O)[C@H](CCC(N)=O)NC(=O)CCCC[C@@H]1SC[C@@H]2NC(=O)N[C@@H]21)C(=O)N[C@@H](CO)C(=O)N1CCC[C@H]1C(=O)NCC(=O)NCC(=O)N[C@@H](CC(C)C)C(=O)N[C@@H](CCC(=O)O)C(=O)N1CCC[C@H]1C(=O)N1CCC[C@H]1C(=O)N[C@@H](CO)C(=O)N[C@@H](CCC(=O)O)C(=O)N[C@@H](CCCCN)C(=O)N[C@@H](Cc1c[nH]cn1)C(=O)N[C@@H](Cc1ccccc1)C(=O)N[C@@H](CCCNC(=N)N)C(=O)N[C@@H](CCC(=O)O)C(=O)N[C@H](C(=O)N[C@@H](CCC(=O)O)C(=O)N[C@H](C(=O)O)C(C)C)[C@@H](C)O` [Tax]: the Classification in [1] is 1 (A450 nm 0-1); in test [2] (PDZ PSD95, PDZ Domain 1), 5 (A450 nm of 4 more than 2× repeated); in [2] (PDZ PSD95, PDZ Domain 2) it was 1 (A450 nm 0-1); in test [2] (PDZ PSD95, PDZ Domain 3), 1 (A450 nm 0-1); in test [3] (PDZ DLG1, PDZ Domain 1), 5 (A450 nm of 4 more than 2× repeated); in [3] (PDZ DLG1, PDZ Domain 2), 5 (A450 nm of 4 more than 2× repeated). The Classification in [5] (PDZ KIAA0147, PDZ Domain 1) is listed as 5 (A450 nm of 4 more than 2× repeated); in [5] (PDZ KIAA0147, PDZ Domain 2), 5 (A450 nm of 4 more than 2× repeated); in test [5] (PDZ KIAA0147, PDZ Domain 3), 1 (A450 nm 0-1); in test [5] (PDZ KIAA0147, PDZ Domain 4), 1 (A450 nm 0-1); in test [6] (PDZ DLG2, PDZ Domain 1) it was 2 (A450 nm 1-2); in test [6] (PDZ DLG2, PDZ Domain 2) it was 5 (A450 nm of 4 more than 2× repeated). For the same compound, the Classification in [7] (setting [10]) is recorded as 3 (A450 nm 2-3); in test [7] (setting [11]), 5 (A450 nm of 4 more than 2× repeated); in test [7] (PDZ atrophin-1 interacting Protein, PDZ Domain 2), 1 (A450 nm 0-1); in test [7] (setting [12]), 1 (A450 nm 0-1); in [9] (PDZ Domain 3), 1 (A450 nm 0-1); in test [8] (PDZ Domain 2), 5 (A450 nm of 4 more than 2× repeated). Also, the Classification in test [8] (PDZ Domain 3) was 5 (A450 nm of 4 more than 2× repeated).

The record behind these values is US20050282743A1, “Molecular interactions in cells” (Arbor Vita Corporation, priority 2001, published 2005).
